Measurements from patent US6673902B2, “Cyclin D binding factor, and uses thereof” (St. Jude Children's Research Hospital, priority 1996, dated 2004).

What was measured:
32P-BS2 Probe = assay: EMSA with 32P-BS2 probe on transfection lysates of NIH-3T3 fibroblasts; format: binding; conditions: EMSA, 32P-BS2 probe, lysates of transfected NIH-3T3 fibroblasts
Method: (§1) Double-stranded oligonucleotides containing potential DMP1 binding sites (BS1 and BS2) and mutated versions (M1-M4) (FIG. 5B) are end-labeled with ^32P using the Klenow fragment of DNA polymerase and α-^32P-dATP (6000 Ci/mmol; Dupont NEN) (8). Nuclear extracts from mouse NIH-3T3 or CTLL cells are prepared with buffer containing 0.4 M NaCl (2). Mammalian cell extracts (15 μg protein) or Sf9 lysates (corresponding to 5×10^2 infected cells) containing ˜4 ng recombinant DMP1 are mixed with 3 ng of ^32P-labeled probe (1×10^5 cpm) in 15 ul Binding buffer containing 2.5 μg of poly(dI-dC) and 2.5 μg BSA and incubated at 4° C. for 30 minutes. For competition experiments, the indicated amounts of unlabeled oligonucleotides are added to the reactions before addition of the labeled probe. In some experiments, a bacterially produced GST-Ets2 fusion protein containing the complete Ets2 DNA-binding domain (10) is used in place of Sf9 extracts containing recombinant DMP1. Protein-DNA complexes are separated on nondenaturing 4% polyacrylamide gels as described (8). Where indicated, antiserum to DMP1 together with 2.5 μg salmon testis DNA (Sigma; used to reduce nonspecific DNA binding activity caused by serum addition) is preincubated with extracts for 30 minutes at 4° C. prior to initiation of binding reactions. Immune complexes are either removed by adsorption to protein A-Sepharose beads (immunodepletion experiments) or are allowed to remain (“supershift” experiments).
A series of deletion mutants and a point mutant of DMP1, K319E, (in which the lysine at position 319 of SEQ ID NO:1 is replaced by a glutamic acid) were prepared and used to determine the DNA-binding domain of DMP1 by electrophoretic mobility shift assay (EMSA) using a ^32P labeled BS2 probe. The DNA-binding domain of DMP1 was mapped to a central region containing the three MYB repeats plus adjacent flanking sequences: a BstEII to NcoI fragment encoding amino acids 87-458 of SEQ ID NO:1 (Table 1). This region alone was necessary and sufficient for DNA binding.

[1] = test system: DMP1-responsive promoter (pGL2BS2); assay: Transactivation of luciferase reporter plasmid under control of a DMP1-responsive promoter in NIH-3T3 fibroblasts; format: cell-based, mouse; conditions: expression vector 3 μg/10 ml, pGL2BS2 8 μg/10 ml; vector without insert set to 1.0
Text: Coexpression of a D-type cyclin with DMP1 overrides the ability of DMP1 to transactivate a luciferase gene under the control of an artificial DMP1-responsive promoter (Table 4), as well as the ability of DMP1 to inhibit cell growth.

NIH-3T3 fibroblasts = assay: BrdU incorporation in transfected NIH-3T3 fibroblasts; format: cell-based, mouse; conditions: for % Cells BrdU Positive: Table 2, expression vector 3 μg/10 ml; for % Cells BrdU Positive in 10% FCS: nonstarved cells; for % Cells BrdU Positive in 10% FCS / % Cells BrdU Positive in 0.1% FCS: additive None, labeled 22 hours; for % Cells BrdU Positive in 0.1% FCS: starved cells
Method: BrdU is added to NIH-3T3 cells after the experimental treatment and the cells were incubated for twenty-two hours in DMEM plus 10% fetal calf serum (FCS). The cells were then stained for DMP1 expression and/or BrdU incorporation. The nucleic acids encoding the wildtype DMP1 and the deletion and point mutants had been constructed so as to express the corresponding proteins with Flag-tags. To stain for DMP1 expression, mouse monoclonal anti-Flag antibodies (12 μg/ml) [Kodak] were incubated with the cells in TBS-Ca^+ without FCS for one hour at room temperature. After washing the cells, horse anti-mouse biotinylated antibodies at a 1:500 dilution were added to the cells in TBS plus 5% FCS and incubated for 30 minutes at room temperature. After washing the cells, strefptavidin linked to Texas red [Amersham] was then added at a 1:500 dilution for 30 minutes at room temperature. To stain for BrdU incorporation, 1.5N HCl was added to the cells for ten minutes at room temperature to denature the DNA. After washing the cells, sheep anti-BrdU antibodies [Fitzgerald] at a 1:12 dilution were then added for one hour at room temperature. After washing the cells, rabbit FITC-conjugated anti-sheep antibodies [Vector] at 1:100 dilution was then incubated for 30 minutes at room temperature.
NIH-3T3 cells were placed on cover slides and transfected with the expression vectors (pFLEX-DMP1 or the corresponding vector containing the deletion or point mutants of mouse DMP1 plus or minus cyclin D or E) for fourteen hours. The cells were then washed twice and DMEM plus 10% FCS was added and the cells incubated for eight hours. Half of the cells were starved by washing twice with 0.1% FCS, and then incubated for twenty-four hours in 0.1% FCS in DMEM. The remaining cells were not starved but were incubated for twenty-four hours in DMEM plus 10% FCS without washing. BrdU was added to both groups of cells and the cells were incubated for twenty-two hours in DMEM plus 10% FCS.
The cells were then restimulated to enter the cell cycle synchronously with DMEM plus 10% FCS. At the same time, 5′-Bromo-2′ Deoxyuridine (BrdU) was added to the medium. The cells were fixed 22 hours later in methanol acetone (1:1) and stained for BrdU incorporation and DMP1 expression as described in the Materials and Methods.

cyclin D1 = biological target: T1, cyclin D1 (Mus musculus, UniProt P25322); assay: Flag immunoprecipitation from SF9 lysates and Western blot for cyclin D1; format: binding; conditions: cotransfected with cyclin D1 in SF9 cells
T1 construct: expressed in transfected cells; host or cells: SF9 insect cells
T1 sequence (P25322 whole entry): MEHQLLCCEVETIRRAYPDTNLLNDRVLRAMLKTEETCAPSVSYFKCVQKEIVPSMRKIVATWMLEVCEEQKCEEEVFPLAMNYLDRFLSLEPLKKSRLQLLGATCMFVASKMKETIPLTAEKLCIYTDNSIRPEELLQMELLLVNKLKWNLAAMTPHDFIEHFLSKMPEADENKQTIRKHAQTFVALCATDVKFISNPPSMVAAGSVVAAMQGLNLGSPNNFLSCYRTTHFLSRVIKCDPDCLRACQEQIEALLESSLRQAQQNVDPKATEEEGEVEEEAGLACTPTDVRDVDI
Text: The series of DMP1 deletion mutants and the K319E point mutant were then used to determine the cyclin D binding domain of DMP1. Expression vectors encoding murine wild-type DMP1, the corresponding deletion mutations, or K319E (i.e., wildtype DMP1 and M1-M11, defined in FIG. 10, Table 1) were cotransfected with an expression vector encoding cyclin D1 into SF9 cells. Wildtype DMP1 and M1-M11 were expressed containing Flag-tags. SF9 lysates were immunoprecipitated with an antibody raised against the Flag-tag. The immunoprecipitates were resolved individually by gel electrophoresis, and then Western blotted with an antibody raised against cyclin D1. […] Therefore, deletion of the N-terminal domain of DMP1 (i.e., amino acids 1-223) abrogates its ability to interact with D-type cyclins, and thus, the region of DMP1 from residues 1-223 contains a specific cyclin D interaction motif required for D-type cyclin-DMP1 association.

recombinant DMP1 = biological target: T2, recombinant DMP1 (Mus musculus, UniProt Q8CE22); assay: EMSA competition with Sf9 lysates producing recombinant DMP1; format: binding; conditions: excess unlabeled oligonucleotide
T2 construct: made in house; host or cells: Sf9 insect cells, pAcYM1 baculovirus vector; used as crude lysate (~4 ng DMP1 per reaction)
T2 sequence (Q8CE22 1-761): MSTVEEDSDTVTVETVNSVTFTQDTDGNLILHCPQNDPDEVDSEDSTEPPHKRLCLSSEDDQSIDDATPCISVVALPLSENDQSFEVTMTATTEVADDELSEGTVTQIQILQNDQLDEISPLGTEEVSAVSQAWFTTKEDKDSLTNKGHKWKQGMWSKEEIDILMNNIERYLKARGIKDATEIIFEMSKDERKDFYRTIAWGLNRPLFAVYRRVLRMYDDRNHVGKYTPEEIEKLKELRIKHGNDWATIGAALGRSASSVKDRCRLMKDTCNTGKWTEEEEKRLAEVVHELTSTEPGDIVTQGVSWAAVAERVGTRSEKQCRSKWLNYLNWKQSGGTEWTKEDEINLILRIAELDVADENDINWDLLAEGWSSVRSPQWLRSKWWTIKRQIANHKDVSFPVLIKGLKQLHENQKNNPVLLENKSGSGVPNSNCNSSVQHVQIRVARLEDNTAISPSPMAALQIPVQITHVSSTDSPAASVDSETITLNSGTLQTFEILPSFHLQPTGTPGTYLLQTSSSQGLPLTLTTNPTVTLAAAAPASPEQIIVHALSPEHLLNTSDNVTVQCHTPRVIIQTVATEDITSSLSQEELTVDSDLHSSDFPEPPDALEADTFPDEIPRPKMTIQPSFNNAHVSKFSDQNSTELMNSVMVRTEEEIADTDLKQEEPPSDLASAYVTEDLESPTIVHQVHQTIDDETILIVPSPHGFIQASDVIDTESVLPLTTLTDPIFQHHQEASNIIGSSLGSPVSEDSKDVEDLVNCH
Method: as §1
(§2) Using electrophoretic mobility shift assays (EMSA) performed after mixing a titrated excess (3 ng) of ^32P-end labeled BS1 probe with Sf9 lysates producing DMP1 (˜4 ng recombinant protein per reaction), a BS1-containing protein complex is detected that was competed with an excess of unlabeled BS1 oligonucleotide but not with mutant oligonucleotides M1 and M2 (FIG. 6A). […] More subtle mutations within this region may be tolerated, because high concentrations of M4 competed for BS1 binding to both Ets2 and DMP1 in subsequent studies (FIG. 5B and see below). DMP1 also binds a BS2 probe, and the binding is competed by excess BS2 or BS1 (FIG. 6B). In agreement with the site selection frequencies (FIG. 5A), binding of ^32P-BS1 under equivalent conditions was competed more efficiently by excess unlabeled BS1 than by BS2 (FIG. 6B). […] In agreement, Ets2 binding to BS1 could be competed with excess unlabeled BS1 and M3, but not by BS2 (FIG. 6C). Therefore, although both DMP1 and Ets2 can each bind to BS1 sequences, their exclusive interactions with BS2 and M3, respectively, help to distinguish DMP1 and Ets binding activities (summarized in FIG. 5B).

GST-Ets2 fusion protein = biological target: T3, GST-Ets2 fusion protein (Homo sapiens, UniProt P15036); assay: EMSA competition with bacterial GST-Ets2 fusion protein; format: binding; conditions: excess unlabeled oligonucleotide
T3 construct: made in house; host or cells: bacteria
T3 sequence (P15036 363-443 limits assumed): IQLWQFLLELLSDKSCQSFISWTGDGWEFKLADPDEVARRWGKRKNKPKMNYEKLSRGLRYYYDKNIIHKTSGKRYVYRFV
Method: as §1, §2

| Substance | 32P-labeled Band (32P-BS2 Probe) | Luciferase Activity [1] | % Cells BrdU Positive (NIH-3T3 fibroblasts) | band corresponding to cyclin D1 in Flag immunoprecipitate (cyclin D1) | competition for 32P-BS1 probe binding to DMP1 (recombinant DMP1) | competition for BS1 binding to Ets2 (GST-Ets2 fusion protein) | % Cells BrdU Positive in 10% FCS (NIH-3T3 fibroblasts) | % Cells BrdU Positive in 0.1% FCS (NIH-3T3 fibroblasts) | competition for BS2 probe binding to DMP1 (recombinant DMP1) |
| --- | --- | --- | --- | --- | --- | --- | --- | --- | --- |
| M7: DMP1 deletion mutant, amino acids 1-169; 238-761 of SEQ ID NO:1 | No | 0.9 | 36% | – | – | – | – | – | – |
| M5: DMP1 deletion mutant (XbaI and BstEII), amino acids 87-761 of SEQ ID NO:1 | Yes | 6.2 | 32% | particularly faint | – | – | – | – | – |
| M2: DMP1 deletion mutant (StuI), amino acids 1-520 of SEQ ID NO:1 | Yes | 3.6 | 20% | – | not | – | – | – | – |
| M4: DMP1 deletion mutant (BstBI), amino acids 1-380 of SEQ ID NO:1 | No | 1.0 | 52% | – | competed | competed | – | – | – |
| M8: DMP1 deletion mutant, amino acids 1-237; 381-761 of SEQ ID NO:1 | No | 1.1 | 54% | – | – | – | 54% | 54% | – |
| M9: DMP1 5′ deletion mutant, amino acids 234-761 of SEQ ID NO:1 | No | 1.0 | 50% | cyclin D1 binding domain is missing | – | – | – | – | – |
| M1: DMP1 deletion mutant (EcoNI), amino acids 1-661 of SEQ ID NO:1 | Yes | 6.7 | 12% | – | not | – | – | – | – |
| M10: DMP1 deletion mutant (BstEII and NcoI), amino acids 87-458 of SEQ ID NO:1 | Yes | 1.1 | 56% | – | – | – | – | – | – |
| oligonucleotide BS1: probe/competitor BS1, SEQ ID NO:10, DMP1 binding site with GGA core (DNA AATTGACCCGGATGTAGGTACGC; chemistry not given here) | – | – | – | – | competed | competed | – | – | competed |
| M6: DMP1 deletion mutant, amino acids 1-86; 170-761 of SEQ ID NO:1 | No | 1.0 | 48% | – | – | – | 44% | 47% | – |
